Measurements taken from patent publication US5770604A, “Aconitine compound and an antipyretic/analgesic/anti-inflammatory agent” (priority 1994, dated 1998).

Key:
[1] = test system: nociceptive response (licking); assay: Analgesic activity by the hot-plate method; type: in vivo, mice (Std:ddY, male); settings: mouse, 52° C. plate, solution 10 mg/10 ml, mean ± standard error
Method: Measurement of Analgesic Activity by the Hot-Plate Method
Std:ddY Strain male mice (20-25 g) were fasted for one day before the experiment, and were used. After compounds shown in Table 1 were formed to the tartaric acid salts, these compounds were dissolved in 0.9% physiologocal saline solution at the rate of 10 mg/10 ml, respectively and these solution were used as test compound solution. In a control, 0.9% physiological saline solution was used. Mice were placed on a cyrindric hot plate (diameter: 22 cm, height: 11 cm) made of copper which was fixed in a water bath adjusted to 52° C. so that each animal's four paws came into contact with the plate and the time taken to show the nociceptive response (licking) as an index of pain was measured. Mice showing response latency above 25 seconds were excluded from the experiment. To prevent a burn damage of mouse tissue by heating, cutoff time of 50 seconds was defined. The results were described as an inhibition rate (%) obtained from the following equation.
Inhibition rate (%)=(A-B)×100/(50-B)
A: Response latency (seconds) after the administration of test compound solution
B: Response latency (seconds) before the administration of test compound solution

[2] = test system: pain threshold (tail-pressure); assay: Analgesic activity by the tail-pressure method (s.c.); type: in vivo, mice (Std:ddY, male); settings: mouse, 10 mg/10 ml at 10 ml/kg s.c., 1 hour after administration, mean ± standard error
Method: (1) Measurement of Analgesic Activity by the Tail-Pressure Method
Std:ddY Strain male mice (20-25 g) were fasted for one day before the experiment, and were used. After test compounds shown in Table 1 was formed to a salt with tartaric acid, this salt was dissolved in 0.9% physiological saline solutions at the rate of 10 mg/10 ml to give the test compoun d solution . As a control, 0.9% physiological saline solution was used. A tail-pressure apparatus was used in this experiments. Before the administration of test compounds, the pain threshold was measured twice at intervals of 30 minutes and those mice indicating a pain threshold of 50 to 100 mmHg were selected and used. The pain threshold of each mouse was measured at 1 hour after test compound solution mentioned above was administered at 10 ml/kg, s.c. 0.9% Physiological saline solution as a control was administered at 10 ml/kg, s.c . The results were described as an inhibition rate (%) obtained from the following equation. Cutoff level of pressure was defined to be 230 mmHg for the prevention of the damage of mouse tail.
Inhibition rate (%)=(A-B)×100/(C-B)
A: Pain threshold (mmHg) after the administration of test compound solution
B: Pain threshold (mmHg) before the administration of test compound solution
C: Cutoff pressure (230 mmHg)

[3] = test system: carrageenin-induced paw edema; assay: Antiinflammatory activity by the carrageenin-induced hind paw edema; type: in vivo, mice (Std:ddY, male); settings: mouse, 30 mg/kg p.o., mean ± standard error, n = 6
Method: Measurement of Antiinflammatory Activity by the Carrageenin-Induced Hind Paw Edema
Std:ddY Strain male mice (20-25 g) were fasted for one day before the experiment, and were used. After test compounds shown in Table 1 was formed to a salt with tartaric acid, this salt was dissolved in sterilized and distilled water at the rate of 30 mg/10 ml to give the test compound solution. As a control, sterilized and distilled water was used. One hour after the oral administration of test compound solutions, 25 μl of λ-carrageenin suspended in 0.9% physiological saline solution (0.5 mg/25 μl) was injected s.c. under the plantar surface of the right hind paw of a mouse and 25 μl of 0.9% physiological saline solution was injected s.c. under the plantar surface of the left hind paw of the same mouse. Three hours and five hours after carrageenin injection, the […] of the paw was measured with a dial gauge calliper. To the control group, One hour after the oral administration of sterilized and distilled water at the rate of 10 ml/kg, 25 μl of λ-carrageenin (0.5 mg/25 μl) suspended in 0.9% physiological saline solution was injected s.c. under the plantar surface of the right hind paw of a mouse and 25 μl of 0.9% physiological saline solution was injected s.c. under the plantar surface of the left hind paw of the same mouse and the later operation was done in the same manner as in the test compound dosing group mentioned above. The results were described as a swelling rate (%) obtained from the following equation.
Swelling rate (%)=(R-L)×100/L
R: the thickness of the right hind paw
L: the thickness of the left hind paw

yeast-induced fever = assay: Antipyretic activity on yeast-induced fever in rats; type: in vivo, rats (Wistar, male); settings: rat, 2 hours after administration
Method: Measurement of Antipyretic Activity on Yeast-Induced Fever in Rats
Wistar Strain male rats (150-190 g) were fasted for one day before the experiment, and were used. Compounds of number (1) and (2) in Table 1 were formed to the tartaric acid salt and these salts were dissolved in 0.9% physiological saline solution at the rate of 10 mg/10 ml and these solution were used as test compound solution. In a control, 0.9% physiological saline solution was used. After rat rectal temperature was measured, 1 ml/100 g of body weight of 7.5% yeast/0.9% physiological saline solution was injected s.c. at dorsal position. Then, rat rectal temperature was measured at 4 hour after the injection of yeast and rats showing the increase rectal temperature by 1 degree or more were selected and used. Test compound solution was administered s.c. at 5 hours after the injection of yeast. The rectal temperature was measured 2 hours after the administration of test compound solution. The results were described with the difference between the rectal temperature before and after the administration of test compound solution.

[4] = cited from earlier work; for analgesic activity, in words: compared to morphine

Compound | Inhibition rate (hot-plate method) [1] | Inhibition rate (tail-pressure method) [2] | Swelling rate ([3]; 3 hour) | Swelling rate ([3]; 5 hour) | Change of rectal temperature (yeast-induced fever; 1 mg/kg s.c.) | Change of rectal temperature (yeast-induced fever; 3 mg/kg s.c.) | Change of rectal temperature (yeast-induced fever; 10 mg/kg s.c.) | analgesic/anti-inflammatory activity relative to earlier compounds, in words ([4]; JP, A, H5-17448) | analgesic activity, in words [4] | activity in tail pressure methods and hot plate methods, in words [4]
COCC12CCC(OC)C34C5CC6(O)C(OC)C(OC(C)=O)C(O)(C5C6OC(=O)c5ccc(Cl)cc5)C(C(OC)C13)C4N(C)C2 (stereo not drawn) [(6), 15-O-acetyl-14-O-p-chlorobenzoylhypaconine] | 46 ± 8% | 27 ± 11% | 46 ± 5% | 60 ± 5% | – | – | – | – | – | –
15-O-acetyl-8-deoxy-14-O-p-chlorobenzoylmesaconine [(7)] | 49 ± 11% | 35 ± 10% | 43 ± 8% | 48 ± 8% | – | – | – | – | – | –
15-O-acetyl-8-deoxy-14-O-p-chlorobenzoylaconine [(8)] | 48 ± 8% | 26 ± 7% | 41 ± 5% | 55 ± 8% | – | – | – | – | – | –
COCC12CN(C)C3C4C(OC)C1C3(C(OC)CC2O)C1CC2(O)C(OC)C(OC(C)=O)C4(O)C1C2OC(=O)c1ccc(Cl)cc1 (stereo not drawn) [(1), 15-O-acetyl-14-O-p-chlorobenzoylmesaconine] | 52 ± 12% | 48 ± 12% | 49 ± 2% | 52 ± 6% | 1.3 ± 0.1 °C | 0.2 ± 0.1 °C | 0.2 ± 0.2 °C | – | – | –
de-N-ethyl-N-propyl-15-O-acetyl-8-deoxy-16-epi-14-O-p-chlorobenzoylaconine [(11)] | 34 ± 9% | 25 ± 8% | 50 ± 5% | 52 ± 9% | – | – | – | – | – | –
COCC12CN(C)C3C4C(OC)C1C3(C(OC)CC2OC(C)=O)C1CC2(O)C(OC)C(OC(C)=O)C4(O)C1C2OC(=O)c1ccc(Cl)cc1 (stereo not drawn) [(5), 3,15-di-O-acetyl-14-O-p-chlorobenzoylmesaconine] | 37 ± 10% | 40 ± 10% | 43 ± 10% | 58 ± 10% | – | – | – | – | – | –
CCN1CC2(COC)C(O)CC(OC)C34C5CC6(O)C(OC)C(O)C(O)(C5C6OC(=O)c5ccc(Cl)cc5)C(C(OC)C23)C14 (stereo not drawn) [14-O-p-chlorobenzoylaconine, reference compound] | 17 ± 7% | 10 ± 4% | 57 ± 8% | 63 ± 9% | – | – | – | exhibits activity superior to that of compounds having a p-chlorobenzoyloxy group bonded to the position 14 carbon atom of the aconitine chemical structure | – | –
COc1ccc2c(c1)c(CC(=O)O)c(C)n2C(=O)c1ccc(Cl)cc1 [indomethacin] | – | – | – | – | – | – | – | – | weak analgesic activity compared to morphine | no remarkable activity in tail pressure methods and hot plate methods
CCCN1CC2(COC)C(O)CC(OC)C34C5CC6(O)C(OC)C(OC(C)=O)C(O)(C5C6OC(=O)c5ccc(Cl)cc5)C(C(OC)C23)C14 (stereo not drawn) [(3), de-N-ethyl-N-propyl-15-O-acetyl-14-O-p-chlorobenzoylaconine] | 39 ± 11% | 36 ± 10% | 42 ± 10% | 54 ± 8% | – | – | – | – | – | –
15-O-acetyl-8-deoxy-16-epi-14-O-p-chlorobenzoylaconine [(10)] | 40 ± 10% | 23 ± 7% | 49 ± 6% | 49 ± 11% | – | – | – | – | – | –
15-O-acetyl-8-deoxy-16-epi-14-O-p-chlorobenzoylmesaconine [(9)] | 46 ± 7% | 31 ± 12% | 44 ± 7% | 56 ± 7% | – | – | – | – | – | –
CC(=O)Oc1ccccc1C(=O)O [aspirin] | – | – | – | – | – | – | – | – | weak analgesic activity compared to morphine | no remarkable activity in tail pressure methods and hot plate methods
